Laboratory results: US4459290A, “C-23-Modified derivatives of OMT, pharmaceutical compositions and method of use” (priority 1982, dated 1984)
Converted amounts (≈) assume the structure as drawn. Where two headings read alike, the source gives them in different places.

How the values were obtained:
these strains = experiment: Activity against the strains of Table VI, agar-dilution; type: cell-based; settings: at the levels tested
Procedure: (§1) Especially noteworthy is the improved activity against gram-negative bacteria for several derivatives when compared to the activity of OMT. […] The MIC's in Tables V and VI were determined by standard agar-dilution assays. The MIC's in Table VII were obtained using a conventional broth-dilution microtiter test.

[1] = system: Pasteurella multocida 17E; experiment: MIC, broth-dilution microtiter test (Table VII); type: cell-based; settings: Pasteurella multocida; P. multocida 17E, bovine isolate; broth-dilution microtiter; read-out: MIC
In short: (§2)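 Each MIC derives from a dilution series, either on solid agar (Enterobacter aerogenes) or in liquid broth within microtiter plates (staphylococcal and Pasteurella strains).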

[2] = system: Pasteurella multocida 68C; experiment: MIC, broth-dilution microtiter test (Table VII); type: cell-based; settings: Pasteurella multocida; P. multocida 68C; broth-dilution microtiter; read-out: MIC
In short: as §2

[3] = system: Pasteurella hemolytica 41D; experiment: MIC, broth-dilution microtiter test (Table VII); type: cell-based; settings: Pasteurella, P. hemolytica 41D, read-out: MIC
In short: (§3)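 Conventional dilution MICs: agar for Enterobacter, microtiter broth for Staphylococcus and Pasteurella.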

[4] = system: Pasteurella multocida 40G; experiment: MIC, broth-dilution microtiter test (Table VII); type: cell-based; settings: Pasteurella multocida; P. multocida 40G; broth-dilution microtiter; read-out: MIC
In short: as §2

Mycoplasma gallisepticum = experiment: MIC, broth-dilution microtiter test (Table VII); type: cell-based; settings: Mycoplasmoides gallisepticum
Procedure: as §1

[5] = system: Pasteurella multocida 60A; experiment: MIC, broth-dilution microtiter test (Table VII); type: cell-based; settings: Pasteurella multocida; P. multocida 60A, avian isolate; broth-dilution microtiter; read-out: MIC
In short: as §2

Staphylococcus aureus = experiment: MIC, broth-dilution microtiter test (Table VII); type: cell-based; settings: Staphylococcus aureus
In short: as §2

[6] = system: Pasteurella hemolytica 22C; experiment: MIC, broth-dilution microtiter test (Table VII); type: cell-based; settings: Pasteurella, P. hemolytica 22C, read-out: MIC
In short: as §3

[7] = system: Pasteurella multocida 22A; experiment: MIC, broth-dilution microtiter test (Table VII); type: cell-based; settings: Pasteurella multocida; P. multocida 22A; broth-dilution microtiter; read-out: MIC
In short: as §2

Streptococcus sp. 80 = experiment: MIC, broth-dilution microtiter test (Table VII); type: cell-based; settings: Streptococcus sp. 80; broth-dilution microtiter; read-out: MIC
Procedure: as §1

[8] = system: Pasteurella hemolytica 23C; experiment: MIC, broth-dilution microtiter test (Table VII); type: cell-based; settings: Pasteurella, P. hemolytica 23C, read-out: MIC
In short: as §3

Mycoplasma hyorhinis = experiment: MIC, broth-dilution microtiter test (Table VII); type: cell-based
Procedure: as §1

Mycoplasma synoviae = experiment: MIC, broth-dilution microtiter test (Table VII); type: cell-based; settings: Mycoplasmopsis synoviae
Procedure: as §1

[9] = system: Haemophilus influenzae R252; experiment: MIC, standard agar-dilution assay (Table V); type: cell-based; settings: Haemophilus influenzae, R252
Procedure: (§4) The MIC's in Tables V and VI were determined by standard agar-dilution assays. The MIC's in Table VII were obtained using a conventional broth-dilution microtiter test.

[10] = system: Haemophilus influenzae Holt; experiment: MIC, standard agar-dilution assay (Table V); type: cell-based; settings: Haemophilus influenzae
Procedure: as §4

Escherichia coli TEM = experiment: MIC, standard agar-dilution assay (Table V); type: cell-based; settings: Escherichia coli
Procedure: as §4

[11] = system: Streptococcus pyogenes C203; experiment: MIC, standard agar-dilution assay (Table V); type: cell-based; settings: Streptococcus pyogenes, C203
Procedure: as §4

[12] = system: Staphylococcus aureus X400; experiment: MIC, standard agar-dilution assay (Table V); type: cell-based; settings: Staphylococcus aureus, X400
Procedure: as §1

Escherichia coli EC14 = experiment: MIC, standard agar-dilution assay (Table V); type: cell-based; settings: Escherichia coli
In short: (§5)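 Growth inhibition in liquid medium, in a routine microtiter broth-dilution series, gave the MIC against staphylococci and pasteurellae; the gram-negative enteric strain was tested by conventional agar dilution instead.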

[13] = system: Staphylococcus epidermidis EPI2; experiment: MIC, standard agar-dilution assay (Table V); type: cell-based; settings: Staphylococcus epidermidis; S. epidermidis EPI2; agar dilution; read-out: MIC
Procedure: as §1

[14] = system: Staphylococcus aureus S13E; experiment: MIC, standard agar-dilution assay (Table V); type: cell-based; settings: Staphylococcus aureus, S13E
Procedure: as §1

Shigella sonnei N9 = experiment: MIC, standard agar-dilution assay (Table V); type: cell-based
In short: as §5

[15] = system: Streptococcus Group D X66; experiment: MIC, standard agar-dilution assay (Table V); type: cell-based
Procedure: as §1

Escherichia coli N10 = experiment: MIC, standard agar-dilution assay (Table V); type: cell-based; settings: Escherichia coli
In short: as §5

[16] = system: Staphylococcus epidermidis EPI1; experiment: MIC, standard agar-dilution assay (Table V); type: cell-based; settings: Staphylococcus epidermidis
Procedure: as §1

[17] = system: Staphylococcus aureus V41; experiment: MIC, standard agar-dilution assay (Table V); type: cell-based; settings: Staphylococcus aureus, V41
Procedure: as §1

Streptococcus Group 9960 = experiment: MIC, standard agar-dilution assay (Table V); type: cell-based; settings: GROUP9960
Procedure: as §1

[18] = system: Klebsiella pneumoniae KAE; experiment: MIC, standard agar-dilution assay (Table V); type: cell-based; settings: Klebsiella pneumoniae
In short: as §5

[19] = system: Klebsiella pneumoniae X26; experiment: MIC, standard agar-dilution assay (Table V); type: cell-based; settings: Klebsiella pneumoniae, X26
Procedure: as §1

[20] = system: Staphylococcus aureus X1.1; experiment: MIC, standard agar-dilution assay (Table V); type: cell-based; settings: Staphylococcus aureus, X1.1
Procedure: as §1

[21] = system: Streptococcus pyogenes C203; experiment: ED50 in mice experimentally infected with S. pyogenes C203 (Table VIII); type: in vivo
Procedure: The C-23 modified derivatives of OMT of this invention have shown in vivo antimicrobial activity against experimental infections. When two doses of test compound were administered to mice experimentally infected with a gram-positive bacterium, S. pyogenes C203, the activity observed was measured as an ED50 value [effective dose in mg/kg to protect 50% of the test animals: see Warren Wick, et al., J. Bacteriol. 81, 233-235 (1961)].

SMILES: CCC1OC(=O)CC(O)C(C)C(OC2OC(C)C(O)C(N(C)C)C2O)C(CC=O)CC(C)C(=O)C=CC(C)=CC1CSc1n[nH]c(=O)c(=O)n1C (stereo not drawn) [Compound 6, 23-Deoxo-23-(1H-5,6-dioxo-4-methyl-1,2,4-triazin-3-yl)thio-OMT]
- activity against these strains (these strains): did not show activity
- MIC [1]: 25 µg/mL (≈ 33.8 µM)
- MIC [2]: 25 µg/mL (≈ 33.8 µM)
- MIC [3]: 50 µg/mL (≈ 67.7 µM)
- MIC [4]: 25 µg/mL (≈ 33.8 µM)
- MIC (Mycoplasma gallisepticum; M. gallisepticum, broth-dilution microtiter, read-out: MIC): 6.25 µg/mL (≈ 8.46 µM)
- MIC [5]: 25 µg/mL (≈ 33.8 µM)
- MIC (Staphylococcus aureus; S. aureus, broth-dilution microtiter, read-out: MIC): 12.5 µg/mL (≈ 16.9 µM)
- MIC [6]: 50 µg/mL (≈ 67.7 µM)
- MIC [7]: 25 µg/mL (≈ 33.8 µM)
- MIC (Streptococcus sp. 80): 6.25 µg/mL (≈ 8.46 µM)
- MIC [8]: 50 µg/mL (≈ 67.7 µM)
- MIC (Mycoplasma hyorhinis; M. hyorhinis, broth-dilution microtiter, read-out: MIC): 25 µg/mL (≈ 33.8 µM)
- MIC (Mycoplasma synoviae; M. synoviae, broth-dilution microtiter, read-out: MIC): 3.12 µg/mL (≈ 4.22 µM)
- MIC [9]: 32 µg/mL (≈ 43.3 µM)
- MIC [10]: 32 µg/mL (≈ 43.3 µM)
- MIC (Escherichia coli TEM): > 128 µg/mL
- MIC [11]: 1 µg/mL (≈ 1.35 µM)
- MIC [12]: 8 µg/mL (≈ 10.8 µM)
- MIC (Escherichia coli EC14; EC14): > 128 µg/mL
- MIC [13]: 8 µg/mL (≈ 10.8 µM)
- MIC [14]: 4 µg/mL (≈ 5.41 µM)
- MIC (Shigella sonnei N9): > 128 µg/mL
- MIC [15]: 16 µg/mL (≈ 21.7 µM)
- MIC (Escherichia coli N10; N10): > 128 µg/mL
- MIC ([16]; EPI1): 4 µg/mL (≈ 5.41 µM)
- MIC [17]: 4 µg/mL (≈ 5.41 µM)
- MIC (Streptococcus Group 9960; Streptococcus Group 9960, agar dilution, read-out: MIC): 16 µg/mL (≈ 21.7 µM)
- MIC [18]: > 128 µg/mL
- MIC [19]: 64 µg/mL (≈ 86.6 µM)
- MIC [20]: 4 µg/mL (≈ 5.41 µM)
- ED50 ([21]; C203, po, read-out: ED50, Oral): > 100 mg/kg
- ED50 ([21]; C203, sc, mice, subcutaneous, doses given 1 and 4 hours postinfection, read-out: ED50, Subcutaneous): 13.6 mg/kg

SMILES: C=C1C=CC(=O)C(C)CC(CC=O)C(OC2OC(C)C(O)C(N(C)C)C2O)C(C)C(O)CC(=O)OC(CC)C2CC12 (stereo not drawn) [Compound 16]
- activity against these strains (these strains): did not show activity
- MIC [1]: 25 µg/mL (≈ 43.1 µM)
- MIC [2]: 25 µg/mL (≈ 43.1 µM)
- MIC [3]: 50 µg/mL (≈ 86.2 µM)
- MIC [4]: 25 µg/mL (≈ 43.1 µM)
- MIC (Mycoplasma gallisepticum): 1.56 µg/mL (≈ 2.69 µM)
- MIC [5]: 25 µg/mL (≈ 43.1 µM)
- MIC (Staphylococcus aureus): 12.5 µg/mL (≈ 21.6 µM)
- MIC [6]: > 50 µg/mL
- MIC [7]: 25 µg/mL (≈ 43.1 µM)
- MIC (Streptococcus sp. 80): 6.25 µg/mL (≈ 10.8 µM)
- MIC [8]: 50 µg/mL (≈ 86.2 µM)
- MIC (Mycoplasma hyorhinis): 12.5 µg/mL (≈ 21.6 µM)
- MIC (Mycoplasma synoviae): 12.5 µg/mL (≈ 21.6 µM)
- MIC [9]: 64 µg/mL (≈ 110 µM)
- MIC [10]: 64 µg/mL (≈ 110 µM)
- MIC (Escherichia coli TEM; E. coli TEM, agar dilution, read-out: MIC): > 128 µg/mL
- MIC [11]: 1 µg/mL (≈ 1.72 µM)
- MIC [12]: 4 µg/mL (≈ 6.9 µM)
- MIC (Escherichia coli EC14; E. coli EC14, agar dilution, read-out: MIC): > 128 µg/mL
- MIC [13]: 4 µg/mL (≈ 6.9 µM)
- MIC [14]: 4 µg/mL (≈ 6.9 µM)
- MIC (Shigella sonnei N9): > 128 µg/mL
- MIC [15]: 4 µg/mL (≈ 6.9 µM)
- MIC (Escherichia coli N10; E. coli N10, agar dilution, read-out: MIC): > 128 µg/mL
- MIC ([16]; S. epidermidis EPI1, agar dilution, read-out: MIC): 4 µg/mL (≈ 6.9 µM)
- MIC [17]: 4 µg/mL (≈ 6.9 µM)
- MIC (Streptococcus Group 9960): 8 µg/mL (≈ 13.8 µM)
- MIC ([18]; K. pneumoniae KAE, agar dilution, read-out: MIC): > 128 µg/mL
- MIC [19]: 64 µg/mL (≈ 110 µM)
- MIC [20]: 4 µg/mL (≈ 6.9 µM)
- ED50 ([21]; C203, po, read-out: ED50, Oral): > 100 mg/kg
- ED50 ([21]; C203, sc, read-out: ED50, Subcutaneous): > 30 mg/kg
